Key:
[1] = Cmax in patient with severe burns at 1 g, iv; type: ADME, organism-based; design: dose 1 g, route intravenous; settings: human, in vivo
[2] = Cmax in healthy human at 1 g, iv; type: ADME, organism-based; design: dose 1 g, route intravenous; settings: in vivo
Homo sapiens [3] = test: AUC (0 to infinity) in patient with severe burns at 1 g, iv; type: ADME, organism-based, Plasma; design: dose 1 g, time infinity, route intravenous; settings: in vivo
Homo sapiens [4] = test: AUC (0 to infinity) in healthy human at 1 g, iv; type: ADME, organism-based, Plasma; design: dose 1 g, time infinity, route intravenous; settings: in vivo
[5] = Mean residence time in patient with severe burns at 1 g, iv; type: ADME, organism-based; settings: human, in vivo
[6] = Mean residence time in healthy human at 1 g, iv; type: ADME, organism-based; settings: in vivo
[7] = Half life in patient with severe burns at 1 g, iv; type: ADME, organism-based; settings: human, in vivo
[8] = Half life in healthy human at 1 g, iv; type: ADME, organism-based; settings: in vivo
[9] = Volume of distribution at steady state in patient with severe burns at 1 g, iv; type: ADME, organism-based; settings: human, in vivo, read-out: Vdss
[10] = Volume of distribution at steady state in healthy human at 1 g, iv; type: ADME, organism-based; settings: in vivo, read-out: Vdss
[11] = Terminal half life in patient with severe burns at 1 g, iv; type: ADME, organism-based; settings: human, in vivo, read-out: beta t1/2 (converted)
[12] = Terminal half life in healthy human at 1 g, iv; type: ADME, organism-based; settings: in vivo, read-out: beta t1/2 (converted)
[13] = Renal clearance in patient with severe burns at 1 g, iv; type: ADME, organism-based, Kidney; settings: human, in vivo, read-out: CL_renal
[14] = Renal clearance in healthy human at 1 g, iv; type: ADME, organism-based, Kidney; settings: in vivo, read-out: CL_renal
[15] = Plasma protein binding in patient with severe burns at 1 g, iv; type: ADME, cell-free; settings: human, read-out: PPB (converted)
[16] = Plasma protein binding in healthy human at 1 g, iv; type: ADME, cell-free; settings: read-out: PPB (converted)
Homo sapiens [17] = test: Clearance in healthy human at 1 g, iv; settings: in vivo
Homo sapiens [18] = test: Clearance in patient with severe burns at 1 g, iv; settings: in vivo

Cmax [1]: 38700 ng/mL
Cmax [2]: 21300 ng/mL
AUC (Homo sapiens [3]): 12000 ng·h/mL
AUC (Homo sapiens [4]): 9890 ng·h/mL
MRT [5]: 35.4 min
MRT [6]: 22.8 min
half-life [7]: 24.6 min
half-life [8]: 15.6 min
Vd [9]: 0.63 L/kg
Vd [10]: 0.6 L/kg
half-life [11]: 54.6 min
half-life [12]: 44.4 min
CL renal [13]: 148 mL/min
CL renal [14]: 98 mL/min
fraction unbound [15]: 0.41
fraction unbound [16]: 0.29
CL (Homo sapiens [17]): 26.3 mL/min/kg
CL (Homo sapiens [18]): 19.8 mL/min/kg
Structure (SMILES): CC(=O)OCC1=C(C(=O)O)N2C(=O)[C@@H](NC(=O)Cc3cccs3)[C@H]2SC1 [CEPHALOTHIN]
